# Data published in patent publication US20200368239A1, “TREATMENT OF AMYOTROPHIC LATERAL SCLEROSIS USING TRAMETINIB” (priority 2019, published 2020).
# Experiments:
# [1] = system: MEK1/2; test: Western blot of pERKs and ERKs in mice whole brain lysates after oral administration; assay type: in vivo; conditions: wild type mice
# Method: FIG. 2 provides a representative image of western blot analysis of pERKs and ERKs in mice whole brain lysates. ERKs were included as a loading control.
# Cells and tissues were washed twice with ice-cold phosphate-buffered saline (PBS) and extracted by homogenizing with Ripa buffer (10 mM HEPES, 1.5 mM MgCl2, 10 mM KCl, 0.01 M DTT, protease inhibitors, pH 7.9). Lysates were centrifuged at 13,000 rpm for 20 min at 4° C. and the protein content in the supernatant was determined using Bradford assay (Bio-rad, Hercules, Calif.). Protein from each sample was subjected to 8%-15% SDS-PAGE, and the resolved proteins were transferred to nitrocellulose or polyvinylidene fluoride membrane. The membranes were blocked with 5% nonfat milk powder in Tris-buffered saline/Tween 20 (TBST) for 1 h at room temperature, then incubated with anti-phospho-ERK (Cell signaling), anti-ERK (Cell signaling), anti-LAMP1 (Abcam), anti-LC3 (Cell signaling), anti-cathepsin B (Cell signaling), anti-p62 (Cell signaling), anti-p62 (5114, Cell signaling), anti-phospho-mTOR (5536, Cell signaling), anti-mTOR (2983, Cell signaling), anti-phospho-ULK1 (14202, Cell signaling), anti-ULK1 (8054, Cell signaling), anti-TFEB (852501, Biolegend), and anti-GAPDH (Cell signaling) overnight at 4° C. […] The detected signals were quantified using a LAS-4000 system (Fuji Film, Tokyo, Japan).
# [2] = system: mRNA expression in whole brain; test: Bulk RNA-Seq of whole brains of wild type mice after oral administration; assay type: in vivo; conditions: FC ≥1.3, FDR <0.05
# Method: To evaluate the transcriptional profiles in the brain, bulk RNA-Seq was performed using whole brains of wild type mice following oral administration of trametinib. Gene ontology terms were enriched at each weekly time point, indicating the relevance of cellular function such as synaptic potential, nervous system development, immune response, and incorrect protein folding in a temporal pattern (FIG. 3A). Decrease in MEK-ERK signaling with trametinib administration during week 1 and week 2 of administration can be indirectly confirmed through the decrease in expression of FGF receptor signaling and GPCR signaling related genes.
# In the second week, we observed neuroblast proliferation-related and axon growth-related gene expression, followed by expression of genes for immune reaction and incorrect protein modification reaction in the third and fourth week, respectively. It is important to note that increase in the gene-sets associated with neurogenesis and the induction of lysosomal activity both occurred within the four-week period, as illustrated by the gene expression heatmap (FIGS. 4A-4B). […] Their FCs were between −2.26 and 3.71.
# RNA was isolated from the mice whole brain and cDNA libraries for RNA sequencing were prepared using the TruSeq Stranded mRNA Prep Kit (Illumina, San Diego, Calif.) according to the manufacturer's guidelines (l). The libraries were sequenced on the Illumina Nextseq500 platform and the reads were mapped to the reference Mouse mm10 genome using Tophat v2.0.13. The total number of reads mapped to the transcriptomes were 24,532 genes and the genes with 0 count in at least one sample were removed before differential expression analysis. There was a total of 18,727 genes after the removal of genes with 0 count. To define differentially expressed genes (DEG), we set up a stringent statistic cutoff of fold change (FC) of ≥1.3 and a false discovery rate (FDR)<0.05. A total of 500 DEGs was identified between the vehicle-treated group and trametinib-treated group in the first week, 498 DEGs in the second week, 446 genes in the third week and 538 genes in the fourth week. Gene ontology was performed with Gene Ontology program of the gene ontology consortium. Heatmap analysis was performed by R studio using the DEG list related with synapse, neurogenesis and lysosome.
# [3] = in vivo; conditions: mouse, po, 0.8 mg/kg
# Method: Trametinib (Medchemexpress, Monmouth Junction, N.J.) was micronized and suspended in the vehicle containing 5% mannitol, 1.5% hydroxypropyl methylcellulose and 0.2% sodium lauryl sulfate. For pharmacokinetic analysis, 0.05, 0.2 and 0.8 mg/kg of trametinib were orally administered in to 7-week-old normal mice (n=5 per group) as a single administration. Mice were sacrificed at each identical time points.
# [4] = system: LAMP1 / LC3 in spinal cord of SOD1-G93A ALS model mice; test: LC3 and LAMP1 immunofluorescence in spinal cord tissues (autophagosome-lysosome fusion); assay type: in vivo; conditions: vs vehicle-treated ALS model mice
# Method: (§1) Mice were perfused with ice-cold phosphate buffered saline (PBS) and followed by 4% paraformaldehyde (PFA). Spinal cords were dissected and analyzed by immunohistochemistry. For cryosections, spinal cords were prepared into sections of 10 μm slices. For immunostaining, the sections were incubated with anti-Map2 (Millipore, Burlington, Mass.), anti-Tuj 1 (Cell signaling, Danvers, Mass.), anti-SMI-32 (Biolegend, San Diego, Calif.), anti-LAMP1 (Abcam, Cambridge, UK), or anti-LC3 (Cell signaling) antibodies. This step was followed by incubation with Alexa Fluor 488-conjugated anti-mouse IgG (Thermo, Waltham, Mass.), Alexa Fluor 488-conjugated anti-rat IgG (Thermo), Alexa Fluor 555-conjugated anti-rabbit IgG secondary antibodies (Thermo). The sections were counterstained with DAPI. The immunofluorescent images were captured using a LSM700 Laser-Scanning confocal microscope (Carl Zeiss, Heildenheim, Germany). For Nissl staining, the sections were incubated with Nissl staining solution (0.1% w/v Cresyl Violet (Sigma, C-5042, USA) and 0.1% v/v glacial acetic acid). The length of the Map2 and Tuj 1 positive dendrites and axons were measured using Icy program. The LC3-LAMP1 co-localization was observed under a confocal microscopy using a LSM700 microscope (Carl Zeiss).
# [5] = system: spinal cord neurons of SOD1-G93A ALS model mice; test: Histological and immunohistochemical analysis of spinal cord of SOD1-G93A ALS model mice; assay type: in vivo; conditions: vs vehicle-treated ALS mice
# Method: After the behavioral tests above were completed, the spinal cords of the euthanized mice were removed, fixed, and processed. The spinal cord tissue was sliced to a thickness of 10 μm with the CM1860 cryomicrotome (Leica Biosystems, Germany). Immunohistochemical analysis was performed using various staining methods to examine the spinal cord tissue, motor neurons, and protein expression in the motor neurons.
# Through Nissl staining, the condition and distribution of neurons can be examined. Nissl staining solution contained 0.1% w/v Cresyl Violet (Sigma, C-5042, USA) and 0.1% v/v glacial acetic acid.
# In order to examine the condition of the motor neurons, the spinal cord tissues were subjected to NeuN immunofluorescent staining to observe all types of neurons (red in FIG. 11) and SMI-32 staining (SMI-32 antibody binds specifically to motor neurons) to observe motor neurons (green in FIG. 11).
# A longitudinal section of the spinal cord tissue was stained with tau antibody to examine the condition of the axonal nerve tract.
# A cross-section of the spinal cord was stained with Tuj 1, an axonal marker, to examine the condition of axons in the tested mice.
# MAP2 staining was performed to observe the condition of dendrites projecting out of the neurons.
# as §1
# [6] = system: patients with ALS; test: Phase 1/2a clinical trial in patients with ALS; assay type: in vivo, human
# Source text: Patients are selected based on the following criteria for a sequential dose-escalation, randomized, active-controlled, phase ½a clinical trial to evaluate the safety, tolerability and efficacy of trametinib in patients with ALS.
# Patients diagnosed as definite, probable or probable-laboratory-supported ALS according to El Escorial Criteria. Patients of less than 2 years after the onset of ALS. Patients who meet the criteria of K-ALSFRS-R score (total score of at least 30 and score of at least 2 for each item) and forced vital capacity (% FVC≥70%, or 60%≤% FVC<70% with K-ALSFRS-R score ≥3 for items 10 to 12).
# Patients with primary lateral sclerosis, progressive muscular atrophy or lower motor neuron disease. […] Patients who have permanently ceased the administration of riluzole due to lack of tolerability and/or efficacy. […]
# As primary outcome measures, safety and tolerability of trametinib is tested based on observation of adverse events. As secondary outcome measures, K-ALSFRS-R (Korean version of Amyotrophic Lateral Sclerosis Functional Rating Scale-Revised) scores are measured in the patients by independent outcome assessors. Additionally, change in forced vital capacity (FVC) from baseline, trough concentrations of trametinib in cerebrospinal fluid (CSF) and trough concentrations of trametinib in plasma are further measured.
# [7] = system: SOD1-G93A ALS model mice; test: Survival of SOD1-G93A ALS model mice; assay type: in vivo; conditions: 0.1 or 0.2 mg/kg/day oral
# Method: Therapeutic efficacy of trametinib was examined in the SOD1-G93A transgenic mouse model, the most widely used animal model for ALS research. The SOD1-G93A ALS model mice, TgN [B6SJL-Tg (SOD1-G93A) 1Gur], were purchased from Jackson Laboratory (ME, USA) and bred at 21±2° C., 35-65% RH.
# In addition, immunohistochemical analysis was performed with the spinal cords of the mice to evaluate the efficacy of trametinib on the tissue, cellular, and molecular level.
# After the onset of symptoms (around 16 weeks after birth), trametinib was orally administered to two groups of ALS model mice every day at the doses of 0.1 mg/kg or 0.2 mg/kg (mpk). As controls, wild type (WT) mice and ALS model mice were treated with vehicle.
# Mice with motor performance score at or lower than 3 were euthanized as they were not able to feed themselves. Survival days for each group of mice were counted.
smiles,measurement,setting,value
"CC(=O)Nc1cccc(-n2c(=O)n(C3CC3)c(=O)c3c(Nc4ccc(I)cc4F)n(C)c(=O)c(C)c32)c1 [Trametinib, acetamide, N-[3-[3-cyclopropyl-5-[(2-fluoro-4-iodophenyl)amino]-3,4,6,7-tetrahydro-6,8-dimethyl-2,4,7-trioxopyrido[4,3-d]pyrimidin-1(2H)-yl]phenyl]]",pERK expression in the brain,[1],significant decrease in pERK expression
same,number of differentially expressed genes (DEGs) vs vehicle-treated group,[2]; first week,500
same,number of differentially expressed genes (DEGs) vs vehicle-treated group,[2]; fourth week,538
same,number of differentially expressed genes (DEGs) vs vehicle-treated group,[2]; second week,498
same,number of differentially expressed genes (DEGs) vs vehicle-treated group,[2]; third week,446
same,Kp,[3],0.477
same,LAMP1 signal (lysosome marker),[4],LAMP1 signal was restored
same,fusion of lysosome and autophagosome (LC3-LAMP1 co-localization),[4],restored as well
same,"axon condition (Tuj 1 staining, cross-section)",[5],relatively well protected long axons
same,"axonal tract condition (tau staining, longitudinal section)",[5],reduced number of abnormal axonal spheroids
same,dendrite condition (MAP2 staining),[5],quite well protected
same,motor neuron shape (SMI-32 and NeuN staining),[5],elongated neurite shape was relatively well preserved
same,number of neurons in spinal cord (Nissl staining),[5],retained more neurons than the vehicle-treated group
same,symptoms associated with ALS in treated patients,"[6]; 0.5, 1 or 2 mg trametinib","reduction of a behavioral, physiological and/or pathological symptom associated with ALS"
same,level of one or more markers after treatment,[6]; some patients,change in the level of one or markers
same,survival compared to the vehicle-treated groups,[7],prolonged
